Measurements published in patent US20120282358A1, “ORAL ADMINISTRATION COMPOSITION” (UNITIKA LTD., priority 2007, published 2012).

Columns and labels:
[1] = tested on: Female mice of KK-Ay/TacJc1 line (diabetes mellitus type II model animal); assay: Test Example 1-2: KK-Ay mice on high fat feed, 4 weeks; body weight, triglyceride, abdominal white fat tissue weight; format: in vivo; settings: 29th day; in comparison with Comparative Example 1-2 and Comparative Example 1-4; FIG. 9
Source text: Female mice of KK-Ay/TacJc1 line (6 weeks of age, manufactured by CLEA Japan Inc.), established as a diabetes mellitus type II model animal, were divided into groups of 6 animals per group, and β-cryptoxanthin (95% in purity, manufactured by SHIKOKU YASHIMA PURE CHEMICALS CO., LTD.) and glucosylceramide (3% in purity, konnyaku ceramide manufactured by UNITIKA, LTD.) were mixed with a high fat feed, at the ratios of 0.2% and 4% respectively, and subjected to free ingestion together with water. As the control group, tests were carried out by providing the mice with a high fat feed (CLEA Rodent Diet Quick Fat, manufactured by CLEA Japan Inc) to which nothing was added (Comparative Example 1-2), the high fat feed to which 0.2% of β-cryptoxanthin alone was added (Comparative Example 1-3) and the high fat feed to which 4% of glucosylceramide alone was added (Comparative Example 1-4).
The administration was carried out for 4 weeks, and body weight and triglyceride content were measured before the administration and on the 7th, 14th, 21st and 28th days after the administration. In addition, the mice were sacrificed on the 29th day after the commencement of administration, and the visceral fats, namely abdominal white fat tissues, were collected and their weights were compared. The results are shown in FIG. 7, FIG. 8 and FIG. 9, respectively.

[2] = tested on: Female mice of KK-Ay/TacJc1 line (diabetes mellitus type II model animal); assay: Test Examples 2-1, 2-2, 2-3: KK-Ay mice on high fat feed, 4 weeks; body weight, blood triglyceride, visceral white fat tissue mass; format: in vivo; settings: for mass of visceral fat (abdominal white fat tissue): 29th day after commencement of administration; for mass of visceral fat (abdominal white fat tissue) / triglyceride content in blood: in comparison with control group; for change in body weight / triglyceride content in blood: mixed in high fat feed, 4 weeks; for change in body weight: measured on 7th, 14th, 21st, 28th days, in comparison with control group (high fat feed alone); for triglyceride content in blood: Triglyceride E-test Wako
Experimental: Female mice of KK-Ay/TacJc1 line (6 weeks of age: manufactured by CLEA Japan Inc.), established as a diabetes mellitus type II model animal, were divided into groups of 6 animals per group, and the composition obtained in Example 1 was mixed with a high fat feed at a ratio of 4% and subjected to free ingestion together with water. The high fat feed alone was allowed to be ingested by the control group.
The administration was carried out for 4 weeks, and the body weight was measured before the administration and on the 7th, 14th, 21st and 28th days after the administration.
Simultaneously with the measurement of body weights of the mice used in Test Example 1-1, blood collection was carried out and the triglyceride content in blood was measured using Triglyceride E-test Wako (manufactured by Wako Pure Chemical Industries, Ltd.) The result is shown in FIG. 11.
The mice used in Test Example 2-1 were sacrificed on the 29th day after commencement of the administration, and collection of the visceral fat, namely white fat tissue, was carried out to compare their mass.

[3] = Applicant's own test of β-cryptoxanthin alone for obesity prevention / fat reduction; settings: no details given

Row | Molecule | abdominal fat tissue weight [1] | mass of visceral fat (abdominal white fat tissue) [2] | change in body weight [2] | triglyceride content in blood [2] | action by individual use (obesity prevention / fat reduction) [3]
1 | CC1=C(/C=C/C(C)=C/C=C/C(C)=C/C=C/C=C(C)/C=C/C=C(C)/C=C/C2=C(C)C[C@@H](O)CC2(C)C)C(C)(C)CCC1 [Comparative Example 1-3, β-cryptoxanthin] | significantly reduced |  |  |  | 
2 | CC1=C(/C=C/C(C)=C/C=C/C(C)=C/C=C/C=C(C)/C=C/C=C(C)/C=C/C2=C(C)C[C@@H](O)CC2(C)C)C(C)(C)CCC1 [Comparative Example 3, β-cryptoxanthin] |  | significantly reduced | significantly reduced on the 28th day | significantly reduced on the 21st and 28th days | 
3 | CC1=C(/C=C/C(C)=C/C=C/C(C)=C/C=C/C=C(C)/C=C/C=C(C)/C=C/C2=C(C)C[C@@H](O)CC2(C)C)C(C)(C)CCC1 [β-cryptoxanthin] |  |  |  |  | weak
4 | a-glycosylhesperidin [Comparative Example 4] |  | reduction of the visceral fat was not found | significant difference was not found | significant difference was not found | 
